In brackets after ≈: the same amount, converted by molar mass. Several values for one entry are separate records, joined by “and”; a condition that tells them apart may be missing. Equal values may be shown once. Activity calls are given as the source filed them. No cut-off for these calls is given here. Some results are limits rather than exact numbers.

Broadly, the IC50 is the concentration that gives 50% inhibition.

The nature of series [1]: Cytotoxicity against human Hep3B cells after 48 hrs by SRB assay. The class given is functional, cell-based, Hep 3B2. (In SRB staining, fixed cells bind dye roughly in proportion to their protein.)
Series [2] relates to Hep 3B2. Kind of series: Antitumor activity against human Hep3B cells xenografted in athymic nude mouse assessed as retardation of tumor growth at 10 mg/kg/day, ip for 4 consecutive days. The class given is functional, organism-based. In general terms: Xenograft models place foreign cells or tissue in a host animal.
The subject of series [3] is Mus musculus. Kind of series: Toxicity in human Hep3B cells xenografted athymic nude mouse assessed as induction of necrotic damage in kidney at 10 mg/kg/day, ip for 4 consecutive days. In kind it is organism-based, Hep 3B2. More on the design: route intraperitoneal. Conditions: in vivo.
Series [4] relates to Mus musculus. Kind of series: Toxicity in human Hep3B cells xenografted athymic nude mouse assessed as induction of necrotic damage in liver at 10 mg/kg/day, ip for 4 consecutive days. More on the design: route intraperitoneal. The note with it: in vivo. In kind it is organism-based, Hep 3B2.
The mark [5] stands for this setting: Homo sapiens, Hep3B, 48 h, read-out: IC50.

As to `O=P(c1ccccc1)(c1ccccc1)c1ccc2ccccc2c1-c1c(P(=O)(c2ccccc2)c2ccccc2)ccc2ccccc12`, the figures for the IC50 in series [1] (setting [5]) and in series [1] (hep 3b2) were 14 mg/L (≈ 21.4 µM) and 12 mg/L (≈ 18.3 µM), respectively. In addition, in series [2], the inhibition result is “Active”. The Activity entry in series [3] and in series [4] was “Non-toxic” in each case.

Regarding `COc1cc(P(=O)(c2ccccc2)c2ccccc2)c(-c2c(P(=O)(c3ccccc3)c3ccccc3)cc(OC)nc2OC)c(OC)n1`, the IC50 is 47 mg/L (≈ 69.5 µM) in series [1] (setting [5]); 43 mg/L and 42 mg/L in series [1] (hep 3b2).

In the case of `COc1cc(P(c2ccccc2)c2ccccc2)c(-c2c(P(c3ccccc3)c3ccccc3)cc(OC)nc2OC)c(OC)n1`, the IC50 in series [1] (setting [5]) is > 50 mg/L.

With `c1ccc(P(c2ccccc2)c2ccc3ccccc3c2-c2c(P(c3ccccc3)c3ccccc3)ccc3ccccc23)cc1`, in series [1] (setting [5]), the IC50 is > 50 mg/L.
